Results on two compounds are retold here after publication PMC8073005, “Antifungal Activity and DNA Topoisomerase Inhibition of Hydrolysable Tannins from Punica granatum L” (International Journal of Molecular Sciences, 2021).

The test system of test [1] is Alternaria alternata AL19. The test can be described thus: MIC, micro-spectrophotometric growth assay (phytopathogens). The test is classed as cell-based. The settings on record: Alternaria alternata AL19; PDB, 24 °C, dark; imazalil at label dose; read-out: Minimum inhibitory concentration (MIC).
Another test has as its system Botrytis cinerea B2. The test is described as above. In kind it is cell-based. The settings on record: Botrytis cinerea B2; PDB, 24 °C, dark; imazalil at label dose; read-out: Minimum inhibitory concentration (MIC).
The test system of test [2] is Colletotrichum acutatum s.s. M146-2. The description is as above. The test is classed as cell-based, Colletotrichum acutatum sensu stricto.
The subject of the next test is Coniella granati M0_C2. The description is as above. In kind it is cell-based.
Test [3] relates to Candida albicans ATCC 10321. The test can be described thus: MIC, broth microdilution (human pathogens). The test is classed as cell-based. As to conditions: Candida albicans, ATCC10321, 48 h, read-out: Minimum inhibitory concentration (MIC).
Test [4] has as its system Candida albicans SC 5314. The test can be described thus: MIC, broth microdilution (human pathogens). The test is classed as cell-based. As to conditions: Candida albicans, SC5314, 48 h, read-out: Minimum inhibitory concentration (MIC). Background: In broth dilution the organism is exposed to a series of concentrations in liquid medium.
The subject of a further test is Candida albicans 1. The test can be described thus: MIC, broth microdilution (human pathogens). In kind it is cell-based. The settings on record: Candida albicans, 1, 48 h, read-out: Minimum inhibitory concentration (MIC).
The test system of a further test is Candida albicans 2. The test can be described thus: MIC, broth microdilution (human pathogens). The test is classed as cell-based. As to conditions: Candida albicans, 2, 48 h, read-out: Minimum inhibitory concentration (MIC).
The test system of another test is Candida albicans H. The test can be described thus: MIC, broth microdilution (human pathogens). The settings on record: Candida albicans, 48 h, read-out: Minimum inhibitory concentration (MIC). In kind it is cell-based.
A further test relates to Candida albicans 40. The test can be described thus: MIC, broth microdilution (human pathogens). The test is classed as cell-based. The settings on record: Candida albicans, 40, 48 h, read-out: Minimum inhibitory concentration (MIC).
In a further test the test system is Candida albicans 41. The test can be described thus: MIC, broth microdilution (human pathogens). The test is classed as cell-based. The settings on record: Candida albicans, 41, 48 h, read-out: Minimum inhibitory concentration (MIC).
Another test has as its system Candida albicans 44. The test can be described thus: MIC, broth microdilution (human pathogens). In kind it is cell-based. As to conditions: Candida albicans, 44, 48 h, read-out: Minimum inhibitory concentration (MIC).
The next test has as its system Candida parapsilosis. The test can be described thus: MIC, broth microdilution (human pathogens). As to conditions: Lodderomyces parapsilosis, 48 h, read-out: Minimum inhibitory concentration (MIC). In kind it is cell-based.
For a further test, the system named is Candida parapsilosis 7. The test can be described thus: MIC, broth microdilution (human pathogens). The test is classed as cell-based. As to conditions: Lodderomyces parapsilosis, 7, 48 h, read-out: Minimum inhibitory concentration (MIC).
Another test concerns Candida zeylanoides 33. The test can be described thus: MIC, broth microdilution (human pathogens). The settings on record: Dujonia zeylanoides, 33, 48 h, read-out: Minimum inhibitory concentration (MIC). In kind it is cell-based.
For test [5], the system named is Saccharomyces cerevisiae 42. The test can be described thus: MIC, broth microdilution (human pathogens). In kind it is cell-based. The settings on record: Saccharomyces cerevisiae, 42, 48 h, read-out: Minimum inhibitory concentration (MIC).
Test [6] concerns Aspergillus brasiliensis ATCC 16404. The test can be described thus: MIC, broth microdilution (human pathogens). In kind it is cell-based. As to conditions: Aspergillus brasiliensis, ATCC16404, 48 h, read-out: Minimum inhibitory concentration (MIC).
In a further test the test system is Aspergillus candidus 3. The test can be described thus: MIC, broth microdilution (human pathogens). In kind it is cell-based. The settings on record: Aspergillus candidus, 3, 48 h, read-out: Minimum inhibitory concentration (MIC).
The test system of another test is Aspergillus candidus 25. The test can be described thus: MIC, broth microdilution (human pathogens). The settings on record: Aspergillus candidus, 25, 48 h, read-out: Minimum inhibitory concentration (MIC). In kind it is cell-based.
Test [7] deals with Cryptococcus neoformans B 3501. The test can be described thus: MIC, broth microdilution (human pathogens). The test is classed as cell-based. As to conditions: Cryptococcus neoformans, B3501, 48 h, read-out: Minimum inhibitory concentration (MIC).
Test [8] has as its system Cryptococcus neoformans ATCC 11240. The test can be described thus: MIC, broth microdilution (human pathogens). The test is classed as cell-based. As to conditions: Cryptococcus neoformans, ATCC11240, 48 h, read-out: Minimum inhibitory concentration (MIC).
For the next test, the system named is Cryptococcus 67. The test can be described thus: MIC, broth microdilution (human pathogens). In kind it is cell-based. As to conditions: Cryptococcus, 67, 48 h, read-out: Minimum inhibitory concentration (MIC).
The test system of test [9] is Cryptococcus var. grubii H99 serotype A. The test can be described thus: MIC, broth microdilution (human pathogens). The test is classed as cell-based. The settings on record: Cryptococcus, 48 h, read-out: Minimum inhibitory concentration (MIC).
Test [10] addresses T1, topoisomerase I from Candida albicans (Candida albicans, UniProt Q00313).
T1 sequence (Q00313 1-778): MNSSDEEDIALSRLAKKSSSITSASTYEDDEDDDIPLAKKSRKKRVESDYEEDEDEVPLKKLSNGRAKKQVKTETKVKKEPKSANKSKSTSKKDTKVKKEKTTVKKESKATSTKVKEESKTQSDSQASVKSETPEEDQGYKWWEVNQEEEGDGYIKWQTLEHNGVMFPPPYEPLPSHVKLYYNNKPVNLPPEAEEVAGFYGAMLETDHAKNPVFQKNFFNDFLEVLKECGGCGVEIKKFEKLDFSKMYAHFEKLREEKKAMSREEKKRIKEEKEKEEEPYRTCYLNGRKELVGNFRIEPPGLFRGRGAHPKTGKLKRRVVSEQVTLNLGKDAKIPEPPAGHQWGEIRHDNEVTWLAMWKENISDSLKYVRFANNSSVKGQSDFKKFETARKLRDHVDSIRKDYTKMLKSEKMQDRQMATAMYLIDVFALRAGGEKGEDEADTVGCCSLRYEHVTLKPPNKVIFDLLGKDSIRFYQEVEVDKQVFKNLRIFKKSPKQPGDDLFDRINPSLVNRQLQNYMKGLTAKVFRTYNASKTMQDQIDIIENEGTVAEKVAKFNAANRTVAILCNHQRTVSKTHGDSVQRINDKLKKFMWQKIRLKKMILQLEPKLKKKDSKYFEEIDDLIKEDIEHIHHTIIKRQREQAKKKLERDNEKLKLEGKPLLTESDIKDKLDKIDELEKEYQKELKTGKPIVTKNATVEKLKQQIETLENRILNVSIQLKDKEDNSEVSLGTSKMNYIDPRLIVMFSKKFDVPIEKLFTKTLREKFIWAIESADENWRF
The test can be described thus: Topoisomerase I supercoiled DNA relaxation inhibition. In kind it is biochemical.

The subject of the next test is Candida strains. The test can be described thus: Agar Disk Diffusion Assay, Candida strains. In kind it is cell-based. As to conditions: 100 µg. In general terms: A growth-free zone around the sample is the usual read-out of agar diffusion tests.
In test [11] the test system is other genera tested (other fungi strains). The test can be described thus: Agar Disk Diffusion Assay, other genera. The test is classed as cell-based. As to conditions: 100 µg. As for the experimental part:
The antifungal activity of pomegranate compounds was evaluated against 19 clinically isolated fungal strains, including nine belonging to Candida albicans species, two belonging to Aspergillus genus, one belonging to Cryptococcus genus, and one Saccharomyces cerevisiae. The C. albicans strains were isolated on CHROMID agar, Aspergillus and Cryptococcus genus were isolated on SDA-CAF and one Saccharomyces cerevisiae on SDA. All the isolates were confirmed by matrix-assisted laser desorption ionization (MALDI) time-of-flight mass spectrometry (TOF/MS). Strains from the American Type Culture Collection (ATCC) were included. All strains were maintained in SDB with 20% (w/v) glycerol at −80 °C until use and sub-cultured in SDA before each test.
The preliminary determination of the antifungal activity of the target compounds (punicalagin, punicalin, ellagic acid, and gallic acid) from pomegranate was carried out by means of the agar disk diffusion assay, according to the standard procedure of the Clinical and Laboratory Standards Institute, with slight modifications. Plates containing SDA were uniformly spread with 100 μL of 10^3 conidia/mL of each strain suspension. […] Disks containing fluconazole (25 μg), amphotericin B (25 μg) and DMSO (20 μL) were used as the positive and the negative control, respectively. The antifungal activity of pomegranate compounds was evaluated by measuring the diameter of the clear inhibition zone formed right around the disks after 48 h incubation at 30 ± 1 °C. The experiment was carried out in triplicate.

The subject of test [12] is Candida albicans SC 5314. The test can be described thus: Time-kill curves. In kind it is cell-based. As to conditions: C. albicans SC 5314; compound at its MIC value; 0–96 h.
In test [13] the test system is C. albicans 1 (clinically isolated strain). The test can be described thus: Time-kill curves. The test is classed as cell-based, Candida albicans. As to conditions: compound at its MIC value, 0–96 h.
The next test addresses DNA topoisomerase I. Further details: method as in PMID 1324981. The settings on record: reported; cited from earlier work.

Regarding `O=C1O[C@H]2[C@@H]3OC(=O)c4cc(O)c(O)c(O)c4-c4c(O)c(O)c5oc(=O)c6c(c(O)c(O)c7oc(=O)c4c5c76)-c4c(cc(O)c(O)c4O)C(=O)OC[C@H]3OC(O)[C@@H]2OC(=O)c2cc(O)c(O)c(O)c2-c2c1cc(O)c(O)c2O` (mixture of isomers) [Punicalagin, punicalagin], the MIC amounted to 92.2 µM in [1]; 92.2 µM in the test with Botrytis cinerea B2; 184.4 µM in test [2] (Colletotrichum acutatum s.s. M146-2, PDB, 24 °C, dark, imazalil at label dose, read-out: Minimum inhibitory concentration (MIC)); 184.4 µM in the test with Coniella granati M0_C2 (Coniella granati M0_C2, PDB, 24 °C, dark, imazalil at label dose, read-out: Minimum inhibitory concentration (MIC)); 0.7 µM in test [3]; 0.7 µM in the test on Candida albicans SC 5314 [4]. The MIC in the test with Candida albicans 1 turned out to be 1.4 µM; in the test on Candida albicans 2, 1.4 µM; in the test with Candida albicans H, 92.2 µM; in the test on Candida albicans 40 it was 5.5 µM; in the test with Candida albicans 41 it was 92.2 µM; in the test on Candida albicans 44 it was 92.2 µM. Moreover, the MIC amounted to 0.7 µM with Candida parapsilosis; 5.5 µM in the test with Candida parapsilosis 7; 92.2 µM in the test on Candida zeylanoides 33; 1.4 µM in test [5]; 2.8 µM in test [6]; 92.2 µM in the test on Aspergillus candidus 3. In addition, the MIC with Aspergillus candidus 25 worked out at 92.2 µM; in test [7], 46.1 µM; in test [8] it was 23 µM; in the test on Cryptococcus 67, 92.2 µM; in test [9], 92.2 µM. For the same compound, the growth reduction amounted to 66% in test [2] (C. acutatum s.s., at 48 h) and 83% in the test on Coniella granati M0_C2 (C. granati, 48 h of incubation). In [10], the IC50 (commonly the concentration at which inhibition is half-maximal) amounted to 9 ± 1.2 µM. In addition, in the test on Candida strains, the “share of Candida strains with inhibition zone from 21 to 30 mm” value is recorded as 82%. The “share of other genera tested with inhibition zone from 21 to 30 mm” value in [11] was determined as 63%. Also, the entries for the “time-kill curve (susceptibility time-course)” value (with Candida albicans SC 5314 [12]; in test [13]) were “major reduction in the number of C. albicans SC 5314 cells” and “preserved the antifungal activity until the end of the test (96 h)”, respectively.

As for `O=C(O)C[C@@H]1C(=O)O[C@H]2[C@@H]3OC(=O)c4cc(O)c(O)c(O)c4-c4c(cc(O)c(O)c4O)C(=O)OC[C@H]2O[C@@H](OC(=O)c2cc(O)c(O)c(O)c2)[C@@H]3OC(=O)c2cc(O)c(O)c3c2[C@H]1[C@H](O)C(=O)O3` [CHEMBL525240, Chebulagic acid], the IC50 on DNA topoisomerase I was 0.05 µM.
